Measured values: patent US9611275B2 (priority 2012, dated 2017)
Where two headings read alike, the source gives them in different places.

Columns and labels:
[1] = biological target: human O-GlcNAcase (Homo sapiens (Human), UniProt O60502); assay: biochemical; format: biochemical; conditions: for Ki: read-out: OGA KI
[2] = biological target: O-GlcNAcase in rat PC-12 cells (Rattus norvegicus (Rat), UniProt Q8VIJ5); assay: cell-based
Description: Assay for Determination of Cellular Activity for Compounds that Inhibit O-GlcNAcase Activity
Inhibition of O-GlcNAcase, which removes O-GlcNAc from cellular proteins, results in an increase in the level of O-GlcNAcylated protein in cells. An increase in O-GlcNAcylated protein can be measured by an antibody, such as RL-2, that binds to O-GlcNAcylated protein. The amount of O-GlcNAcylated protein:RL2 antibody interaction can be measured by enzyme linked immunosorbant assay (ELISA) procedures.
A variety of tissue culture cell lines, expressing endogenous levels of O-GlcNAcase, can be utilized; examples include rat PC-12, and human U-87, or SK-N-SH cells. In this assay, rat PC-12 cells were plated in 96-well plates with approximately 10,000 cells/well. Compounds to be tested were dissolved in DMSO, either 2 or 10 mM stock solution, and then diluted with DMSO and water in a two-step process using a Tecan workstation. […] To prepare a cell lysate, the media from compound treated cells was removed, the cells were washed once with phosphate buffered saline (PBS) and then lysed for 5 minutes at room temperature in 50 μL of Phosphosafe reagent (Novagen Inc, Madison, Wis.) with protease inhibitors and PMSF. The cell lysate was collected and transferred to a new plate, which was then either coated to assay plates directly or frozen −80° C. until used in the ELISA procedure. If desired, the total protein concentration of samples is determined using 20 μL of the sample using the BCA method.
The plate was sealed and incubated at 37° C. for 2 hr with gentle shaking. The wells were then washed 3-times with 300 μl/well wash buffer. […] The plate was incubated for 60 min at 37° C. with gentle shaking. Each well was then washed 3-times with 300 μl/well wash buffer. The detection reagent was added, 100 μL/well of Amplex Ultra RED reagent (prepared by adding 30 μL of 10 mM Amplex Ultra Red stock solution to 10 ml PBS with 18 μL 3% hydrogen peroxide, H2O2). The detection reaction was incubated for 15 minutes at room temperature and then read with excitation at 530 nm and emission at 590 nm.

[3] = Assay for determination of apparent permeability (Papp), bi-directional transport; conditions: pig, LLC-PK1
[4] = rat PC-12 cells, 24 hours treatment, increase in O-GlcNAcylated protein, read-out: Cell based ELISA EC50
[5] = purified human O-GlcNAcase 0.7 nM, pH 7.0, room temperature, Cheng-Prusoff

O-GlcNAcase in rat PC-12 cells, sequence (Q8VIJ5 whole entry): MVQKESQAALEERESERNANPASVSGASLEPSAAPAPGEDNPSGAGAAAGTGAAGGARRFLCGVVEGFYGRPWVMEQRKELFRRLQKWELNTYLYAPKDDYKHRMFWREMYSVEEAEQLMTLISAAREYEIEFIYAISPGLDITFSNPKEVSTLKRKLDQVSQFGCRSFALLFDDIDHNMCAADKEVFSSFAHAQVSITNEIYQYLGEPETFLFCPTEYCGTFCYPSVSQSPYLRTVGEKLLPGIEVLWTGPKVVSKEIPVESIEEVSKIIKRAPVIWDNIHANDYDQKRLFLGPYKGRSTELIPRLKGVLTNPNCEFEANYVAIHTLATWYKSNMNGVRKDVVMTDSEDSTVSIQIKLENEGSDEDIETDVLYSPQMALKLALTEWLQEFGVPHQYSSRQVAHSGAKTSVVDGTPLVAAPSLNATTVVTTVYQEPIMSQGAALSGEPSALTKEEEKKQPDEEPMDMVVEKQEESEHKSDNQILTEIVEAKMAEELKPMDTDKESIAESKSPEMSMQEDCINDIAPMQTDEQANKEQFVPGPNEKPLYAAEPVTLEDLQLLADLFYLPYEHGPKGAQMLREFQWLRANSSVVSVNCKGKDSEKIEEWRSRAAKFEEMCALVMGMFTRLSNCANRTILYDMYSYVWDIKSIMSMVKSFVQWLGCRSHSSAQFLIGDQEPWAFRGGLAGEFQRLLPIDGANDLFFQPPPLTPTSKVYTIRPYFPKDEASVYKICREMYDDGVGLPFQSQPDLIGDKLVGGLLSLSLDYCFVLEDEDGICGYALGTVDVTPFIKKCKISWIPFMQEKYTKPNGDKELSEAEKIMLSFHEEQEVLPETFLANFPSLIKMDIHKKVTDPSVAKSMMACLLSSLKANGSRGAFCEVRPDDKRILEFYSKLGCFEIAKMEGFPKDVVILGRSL
human O-GlcNAcase, sequence (O60502 whole entry): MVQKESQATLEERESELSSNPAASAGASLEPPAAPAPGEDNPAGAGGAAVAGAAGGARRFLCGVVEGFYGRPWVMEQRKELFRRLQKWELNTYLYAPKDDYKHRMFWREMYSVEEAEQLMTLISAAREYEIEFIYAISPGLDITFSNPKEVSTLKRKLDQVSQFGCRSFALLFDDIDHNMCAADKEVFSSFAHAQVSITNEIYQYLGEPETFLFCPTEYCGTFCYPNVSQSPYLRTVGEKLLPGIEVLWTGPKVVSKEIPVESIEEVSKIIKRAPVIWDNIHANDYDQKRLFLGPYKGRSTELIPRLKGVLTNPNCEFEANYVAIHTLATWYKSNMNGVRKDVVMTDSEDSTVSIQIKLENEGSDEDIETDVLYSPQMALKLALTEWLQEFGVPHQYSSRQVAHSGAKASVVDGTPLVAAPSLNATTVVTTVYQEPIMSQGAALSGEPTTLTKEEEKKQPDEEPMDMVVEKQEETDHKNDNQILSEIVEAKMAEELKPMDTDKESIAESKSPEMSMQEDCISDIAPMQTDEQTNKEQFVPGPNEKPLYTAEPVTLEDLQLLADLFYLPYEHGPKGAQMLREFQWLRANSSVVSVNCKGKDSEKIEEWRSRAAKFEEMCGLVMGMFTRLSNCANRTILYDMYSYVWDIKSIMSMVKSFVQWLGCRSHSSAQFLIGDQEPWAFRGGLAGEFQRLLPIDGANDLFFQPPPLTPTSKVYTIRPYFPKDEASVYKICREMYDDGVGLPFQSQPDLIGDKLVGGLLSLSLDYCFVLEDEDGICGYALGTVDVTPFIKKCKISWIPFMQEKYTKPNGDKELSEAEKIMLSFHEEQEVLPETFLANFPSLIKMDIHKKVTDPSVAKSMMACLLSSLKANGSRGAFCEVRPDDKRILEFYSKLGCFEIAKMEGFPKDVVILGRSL

SMILES	Ki [1] [nM]	EC50 [2, 4] [nM]	Papp at 3 h, 1 μM [3] [×10⁻⁶ cm/s]	Ki [1, 5] [nM]	other results
CN(C)C1=N[C@@H]2[C@@H](O)[C@H](O)[C@@H](C(OCc3cccc(F)c3)C(F)(F)F)O[C@@H]2S1 (stereo in doubt) [Example 64, (3aR,5S,6S,7R,7aR)-2-(dimethylamino)-5-((S)-2,2,2-trifluoro-1-(3-fluorobenzyloxy)ethyl)-5,6,7,7a-tetrahydro-3aH-pyrano[3,2-d]thiazole-6,7-diol]	1.32	8.43	29.9		
CNC1=N[C@@H]2[C@H]3OC(C)(C)O[C@@H]3[C@@H](C(OCc3ccc(F)cc3)C(F)(F)F)O[C@@H]2S1 (stereo in doubt) [Example 117, (1R,2R,6R,8S,9S)—N,11,11-trimethyl-8-[(1S)-2,2,2-trifluoro-1-[(4-fluorophenyl)methoxy]ethyl]-7,10,12-trioxa-5-thia-3-azatricyclo[7.3.0.0[2,6]]dodec-3-en-4-amine]					KI values for inhibition of O-GlcNAcase ([1]; units given within the value): does not possess inhibitory activity in the aforementioned range
CN(C)C1=N[C@@H]2[C@@H](O)[C@H](O)[C@@H]([C@@H](N(C)C)C(F)(F)F)O[C@@H]2S1 [Example 17, (3aR,5R,6S,7R,7aR)-2-(dimethylamino)-5-((R)-1-(dimethylamino)-2,2,2-trifluoroethyl)-5,6,7,7a-tetrahydro-3aH-pyrano[3,2-d]thiazole-6,7-diol]			31.2	41.9	
CN(C)C1=N[C@@H]2[C@@H](O)[C@H](O)[C@@H]([C@@H](OCCCCCF)C(F)(F)F)O[C@@H]2S1 [Example 31, (3aR,5S,6S,7R,7aR)-2-(dimethylamino)-5-((R)-2,2,2-trifluoro-1-(5-fluoropentyloxy)ethyl)-5,6,7,7a-tetrahydro-3aH-pyrano[3,2-d]thiazole-6,7-diol]		22.3	31.3	4.4	
CN(C)C1=N[C@@H]2[C@@H](O)[C@H](O)[C@@H]([C@@H](OCCC3CCCCC3)C(F)(F)F)O[C@@H]2S1 [Example 34, (3aR,5S,6S,7R,7aR)-5-((R)-1-(2-cyclohexylethoxy)-2,2,2-trifluoroethyl)-2-(dimethylamino)-5,6,7,7a-tetrahydro-3aH-pyrano[3,2-d]thiazole-6,7-diol]		46.4	33.3	2.27	
CN(C)C1=N[C@@H]2[C@@H](O)[C@H](O)[C@@H]([C@@H](OCc3ccccc3)C(F)(F)F)O[C@@H]2S1 [Example 39, (3aR,5S,6S,7R,7aR)-5-((R)-1-(benzyloxy)-2,2,2-trifluoroethyl)-2-(dimethylamino)-5,6,7,7a-tetrahydro-3aH-pyrano[3,2-d]thiazole-6,7-diol]		36.2		2.43	
CN(C)C1=N[C@@H]2[C@@H](O)[C@H](O)[C@@H]([C@@H](OCc3cccnc3)C(F)(F)F)O[C@@H]2S1 [Example 42, (3aR,5S,6S,7R,7aR)-2-(dimethylamino)-5-((R)-2,2,2-trifluoro-1-(pyridin-3-ylmethoxy)ethyl)-5,6,7,7a-tetrahydro-3aH-pyrano[3,2-d]thiazole-6,7-diol]		120	15.2	2.36	
CN(C)C1=N[C@@H]2[C@@H](O)[C@H](O)[C@@H]([C@@H](OCc3ccc(-c4ccccc4)cc3)C(F)(F)F)O[C@@H]2S1 [Example 44, (3aR,5S,6S,7R,7aR)-5-((R)-1-(biphenyl-4-ylmethoxy)-2,2,2-trifluoroethyl)-2-(dimethylamino)-5,6,7,7a-tetrahydro-3aH-pyrano[3,2-d]thiazole-6,7-diol]	3.05				
CN(C)C1=N[C@@H]2[C@@H](O)[C@H](O)[C@@H]([C@@H](OCc3ccc(Cc4ccccc4)cc3)C(F)(F)F)O[C@@H]2S1 [Example 45, (3aR,5S,6S,7R,7aR)-5-((R)-1-(4-benzylbenzyloxy)-2,2,2-trifluoroethyl)-2-(dimethylamino)-5,6,7,7a-tetrahydro-3aH-pyrano[3,2-d]thiazole-6,7-diol]	1.97				EC50 [2]: 128 nM
COc1ccc(CO[C@H]([C@H]2O[C@@H]3SC(N(C)C)=N[C@@H]3[C@@H](O)[C@@H]2O)C(F)(F)F)cc1 [Example 52, (3aR,5S,6S,7R,7aR)-2-(dimethylamino)-5-((R)-2,2,2-trifluoro-1-(4-methoxybenzyloxy)ethyl)-5,6,7,7a-tetrahydro-3aH-pyrano[3,2-d]thiazole-6,7-diol]		21.3	30.5	1.38	
CN(C)C1=N[C@@H]2[C@@H](O)[C@H](O)[C@@H]([C@@H](OCc3ccc(OCCF)cc3)C(F)(F)F)O[C@@H]2S1 [Example 55, (3aR,5S,6S,7R,7aR)-2-(dimethylamino)-5-((R)-2,2,2-trifluoro-1-(4-(2-fluoroethoxy)benzyloxy)ethyl)-5,6,7,7a-tetrahydro-3aH-pyrano[3,2-d]thiazole-6,7-diol]	0.65		27.1		EC50 [2]: 79.5 nM
CN(C)C1=N[C@@H]2[C@@H](O)[C@H](O)[C@@H]([C@@H](OCc3ccc(Oc4ccccc4)cc3)C(F)(F)F)O[C@@H]2S1 [Example 57, (3aR,5S,6S,7R,7aR)-2-(dimethylamino)-5-((R)-2,2,2-trifluoro-1-(4-phenoxybenzyloxy)ethyl)-5,6,7,7a-tetrahydro-3aH-pyrano[3,2-d]thiazole-6,7-diol]	1.11		16.4		EC50 [2]: 62.1 nM
COc1ccc(CO[C@H]([C@H]2O[C@@H]3SC(N(C)C)=N[C@@H]3[C@@H](O)[C@@H]2O)C(F)(F)F)cc1C(F)(F)F [Example 58, (3aR,5S,6S,7R,7aR)-2-(dimethylamino)-5-((R)-2,2,2-trifluoro-1-(4-methoxy-3-(trifluoromethyl)benzyloxy)ethyl)-5,6,7,7a-tetrahydro-3aH-pyrano[3,2-d]thiazole-6,7-diol]		76.9	26.2	0.84	
CN(C)C1=N[C@@H]2[C@@H](O)[C@H](O)[C@@H]([C@@H](OCc3ccccc3F)C(F)(F)F)O[C@@H]2S1 [Example 61, (3aR,5S,6S,7R,7aR)-2-(dimethylamino)-5-((R)-2,2,2-trifluoro-1-(2-fluorobenzyloxy)ethyl)-5,6,7,7a-tetrahydro-3aH-pyrano[3,2-d]thiazole-6,7-diol]	1.98		29		EC50 [2]: 7.73 nM
CN(C)C1=N[C@@H]2[C@@H](O)[C@H](O)[C@@H]([C@@H](OCc3ccc(F)cc3)C(F)(F)F)O[C@@H]2S1 [Example 65]		27.7	28.8	1.02	
CN(C)C1=N[C@@H]2[C@@H](O)[C@H](O)[C@@H]([C@@H](OCc3ccc(C(F)(F)F)cc3)C(F)(F)F)O[C@@H]2S1 [Example 66, (3aR,5S,6S,7R,7aR)-2-(dimethylamino)-5-((R)-2,2,2-trifluoro-1-(4-(trifluoromethyl)benzyloxy)ethyl)-5,6,7,7a-tetrahydro-3aH-pyrano[3,2-d]thiazole-6,7-diol]	2.32		28.2		EC50 [2]: 13.5 nM
CN(C)C1=N[C@@H]2[C@@H](O)[C@H](O)[C@@H]([C@@H](OCc3ccc(CCF)cc3)C(F)(F)F)O[C@@H]2S1 [Example 70, (3aR,5S,6S,7R,7aR)-2-(dimethylamino)-5-((R)-2,2,2-trifluoro-1-(4-(2-fluoroethyl)benzyloxy)ethyl)-5,6,7,7a-tetrahydro-3aH-pyrano[3,2-d]thiazole-6,7-diol]		17.8	29.5	0.61	
CN(C)C1=N[C@@H]2[C@@H](O)[C@H](O)[C@@H]([C@@H](OCc3ccc(CCCF)cc3)C(F)(F)F)O[C@@H]2S1 [Example 71, (3aR,5S,6S,7R,7aR)-2-(dimethylamino)-5-((R)-2,2,2-trifluoro-1-(4-(3-fluoropropyl)benzyloxy)ethyl)-5,6,7,7a-tetrahydro-3aH-pyrano[3,2-d]thiazole-6,7-diol]		30.8	34.6	0.78	
CN(C)C1=N[C@@H]2[C@@H](O)[C@H](O)[C@@H]([C@@](CCc3ccccc3)(OCc3ccccc3)C(F)(F)F)O[C@@H]2S1 [Example 76, (3aR,5S,6S,7R,7aR)-5-((R)-2-(benzyloxy)-1,1,1-trifluoro-4-phenylbutan-2-yl)-2-(dimethylamino)-5,6,7,7a-tetrahydro-3aH-pyrano[3,2-d]thiazole-6,7-diol]				726	
CNC1=N[C@@H]2[C@@H](O)[C@H](O)[C@@H]([C@@H](OCc3ccc(C)cc3)C(F)(F)F)O[C@@H]2S1 [Example 85, (3aR,5S,6S,7R,7aR)-2-(methylamino)-5-((R)-2,2,2-trifluoro-1-(4-mcthylbenzyloxy)ethyl)-5,6,7,7a-tetrahydro-3aH-pyrano[3,2-d]thiazole-6,7-diol]			26.3	3.11	
CNC1=N[C@@H]2[C@@H](O)[C@H](O)[C@@H]([C@@H](OCc3ccc(CCF)cc3)C(F)(F)F)O[C@@H]2S1 [Example 87, (3aR,5S,6S,7R,7aR)-2-(methylamino)-5-((R)-2,2,2-trifluoro-1-(4-(2-fluoroethyl)benzyloxy)ethyl)-5,6,7,7a-tetrahydro-3aH-pyrano[3,2-d]thiazole-6,7-diol]	0.71				EC50 [2]: 46.4 nM
CCNC1=N[C@@H]2[C@@H](O)[C@H](O)[C@@H]([C@@H](OCc3ccc(OC)cc3)C(F)(F)F)O[C@@H]2S1 [Example 96, (3aR,5S,6S,7R,7aR)-2-(ethylamino)-5-((R)-2,2,2-trifluoro-1-(4-methoxybenzyloxy)ethyl)-5,6,7,7a-tetrahydro-3aH-pyrano[3,2-d]thiazole-6,7-diol]			30.1	12.5	
CNC1=N[C@@H]2[C@@H](O)[C@H](O)[C@@H]([C@](C)(O)C(F)(F)F)O[C@@H]2S1 [Example 158, (3aR,5S,6S,7R,7aR)-2-(methylamino)-5-((S)-1,1,1-trifluoro-2-hydroxypropan-2-yl)-5,6,7,7a-tetrahydro-3aH-pyrano[3,2-d]thiazole-6,7-diol]			2.9		Ki ([1]; comparative compounds described in PCT/US11/059668): 1.29 nM
